Data as given in US20220064238A1, “Methods And Compositions For Modifying Transcription Factor Activity by Targeting The Human Mediator Complex Using Cell Penetrating Memetic Peptides And Methods of Treating Cancer Using The Same” (The Regents of the University of Colorado, a body corporate, priority 2020, published 2022).
Bridge positions count the residues as written; N and C are the ends. Square brackets hold non-standard residues; d marks the D form. Peptide text beside a SMILES is read from it. PEG6 = NCCOCCOCCOCCOCCOCCOCCC(=O)O; R8 = C=CCCCCCC[C@@](C)(N)C(=O)O; S5 = C=CCCC[C@](C)(N)C(=O)O

Test system: p53 target genes in HCT116 cells
Test: RNA-Seq / GSEA in HCT116 cells, p53 pathway genes
Assay type: cell-based, human
Protocol: To circumvent this issue, we used a well-tested electroporation protocol to enhance cell uptake of the bivalent peptide (see Methods). HCT116 cells were evaluated either in the presence of bivalent peptide or vehicle (water), with or without Nutlin-3a (FIG. 3A, B). Nutlin-3a is a small molecule that activates and stabilizes p53 by inhibiting MDM2, a repressor of p53. […] After 3 h Nutlin-3a treatment (or DMSO control, ±bivalent peptide), nuclear RNA was isolated and biological replicate RNA-Seq libraries were prepared (FIG. 9A; Table 1).
A confounding issue with these experiments was that cellular uptake of the bivalent peptide could not be accurately measured and could potentially vary from experiment-to-experiment. To assess this possibility more thoroughly, we completed an additional round of RNA-Seq experiments in control vs. Nutlin-treated HCT116 cells (FIG. 9B; Table 1). These additional experiments (RNA-Seq experiment 2) were completed with a slightly modified protocol that included treatment in serum-free media as an effort to enhance peptide uptake. Importantly, the data from RNA-Seq experiment 2 (biological triplicate; FIG. 10) were consistent with the first series of biological replicates (RNA-Seq experiment 1; FIG. 3C-E) and in each case, repression of p53-dependent transcription by the bivalent peptide tracked with Nutlin induction levels (FIG. 9CE). Nutlin-induced activation of p53 target genes was inhibited in the presence of the bivalent peptide, providing further evidence that the bivalent peptide blocks p53 response in cells. However, the scope and magnitude of the effect was reduced in this second, independent set of RNA-Seq experiments (e.g. compare FIG. 3C, D & FIG. 10C, D). This broadly consistent but variable magnitude effect can also be seen from RNA-Seq reads at specific p53 target genes (RNA-Seq experiment 1, FIG. 4A, B; RNA-Seq experiment 2, FIG. 4C, D). The overall p53 response to Nutlin-3a was reduced in RNA Seq experiment 2 (GSEA p53 pathway NES=2.76 in RNA-Seq experiment 1 vs. NES=1.59 in RNASeq experiment 2), which therefore reduced the transcriptional impact of the bivalent peptide. However, we cannot rule out variable cellular uptake of the bivalent peptide as a contributing factor.
Electroporation of bivalent peptide into HCT116 cells (RNA-Seq experiment 1): Two 6-well plates (HCT116 cells) were grown to about 80% confluency. Cells were then trypsinized, washed with PBS, and resuspended in 150 μL Neon Buffer R. The cells were then split into two groups: No peptide and 10 μM peptide. The cells were then drawn into a 10 μL Neon pipet tip, electroporated and ejected into 2 mL of McCoy's 5A media without antibiotic. For each experiment, two cell electroporation aliquots were added to media containing either 0.1% DMSO (control) or 10 μM Nutlin-3a (in DMSO, to a final concentration of 0.1%). For wells containing cells electroporated with peptide, an additional 200 nM peptide was added to the well to allow for peptide uptake during the experiment. The 6-well plate was then placed back at 37° C. for 3 hours. After 3 hours, cells were scraped from the plates, transferred to a 15 mL conical vial, pelleted at 1,000×g, and washed in 10 mL phosphate buffered saline (PBS) solution. To isolate the nuclei, cells were resuspended in 10 mL lysis buffer (10 mM Tris-HCl, pH 7.4, 2 mM MgCl2, 3 mM CaCl2), 0.5% NP-40, 10% glycerol) and thoroughly mixed. The nuclei were spun down at 1,000×g for 10 minutes, the lysis buffer was removed, and 1 mL of TRIzol was added. The nuclear RNA was isolated as described in the TRIzol instructions, except an additional phenol/chloroform extraction and chloroform-only extraction were performed to reduce contaminants. RNA was precipitated and washed twice with 75% ethanol to further remove contaminants. The RNA was then converted to cDNA using the High Capacity cDNA kit from Thermo Fisher Scientific. […]

CC[C@H](C)[C@H](NC(=O)[C@H](CC(=O)O)NC(=O)[C@H](CC(=O)O)NC(=O)[C@@H]1CCCN1C(=O)[C@H](CO)NC(=O)[C@H](CC(C)C)NC(=O)CCOCCOCCOCCOCCOCCOCCNC(=O)[C@H](CCCNC(=N)N)NC(=O)[C@H](CCCNC(=N)N)NC(=O)[C@]1(C)CCCC=CCCCCCC[C@@](C)(NC(=O)[C@H](Cc2ccccc2)NC(=O)[C@H](CCCNC(=N)N)NC(=O)[C@H](CCC(=O)O)NC(=O)[C@H](CCC(N)=O)NC(=O)[C@H](CO)NC(=O)[C@H](CCCNC(=N)N)NC(C)=O)C(=O)N[C@@H](CC(=O)O)C(=O)N[C@@H](CC(C)C)C(=O)N[C@@H](Cc2c[nH]c3ccccc23)C(=O)N[C@@H](CCCCN)C(=O)N[C@@H](CCCNC(=N)N)C(=O)N[C@@H](CC(C)C)C(=O)N1)C(=O)N[C@@H](CCC(=O)O)C(=O)N[C@@H](CCC(N)=O)C(=O)N[C@@H](Cc1c[nH]c2ccccc12)C(=O)N[C@@H](Cc1ccccc1)C(=O)N[C@H](C(=O)N[C@@H](CCC(=O)O)C(=O)N[C@@H](CC(=O)O)C(N)=O)[C@@H](C)O [bivalent peptide] (Ac-RSQERF[R8]DLWKRL[S5]RR[PEG6]LSPDDIEQWFTED-NH2; staple 7-14; N-terminus assumed)
GSEA p53 pathway NES, Nutlin response in peptide-treated cells (RNA-Seq experiment 1, +Nutlin): 1.97
GSEA p53 pathway NES, Nutlin response in peptide-treated cells (RNA-Seq experiment 2, +Nutlin): 0.92
Nutlin-induced activation of p53 target genes in peptide-treated cells (electroporated 10 μM peptide, Nutlin-3a 10 μM, 3 h, HCT116): diminished
p53 activation by peptide alone (no Nutlin, vs. untreated controls, HCT116): modest p53 activation
